pIC50: −log10 of the molar value. Like-named read-outs stand apart in the source and are kept apart here. A value given as a limit tells only on which side of the number the result lay.

Common to all, as to format: cell-based, human
One experiment deals with IRP2 and GPX4. The experiment can be described thus: Western blots for cellular iron-sensing machinery (IRP2, GPX4). The following applies: 786-0 or RCC10 ccRCC cells, 24h, relative to GAPDH. On the procedure:
(§1) Western blots were performed to determine the effects of the compounds on levels of HIF-2α and other relevant proteins, whereas qPCR was performed to determine the effects of compounds on transcript levels of HIF target genes. 786-0 or RCC10 cells were plated at 1×10E5 cells/well in 2 ml DMEM with 10% FBS/well in 6-well tissue culture plates. Cells were allowed to adhere overnight in a humidified incubator at 37° C. with 5% CO2, after which the appropriate concentrations of compounds in DMSO were added. DMSO concentrations were kept constant in all wells. After 24 h exposure to the compounds, cells were lysed and subjected to western blotting according to standard protocols. Antibodies for HIF-1α and HIF-2α and GAPDH were purchased from Cell Signaling Technology (Danvers, MA), whereas antibodies to IRP2 and pVHL were from Santa Cruz Biotechnology (Dallas, TX), and GPX4 antibody was from R&D Systems, Inc (Minneapolis, MN). Representative data in FIG. 2 show a dose-dependent effect of compounds in decreasing HIF-1/2α. Compounds also impact cellular iron sensing given by increased IRP2, which taken together indicate that cells sense decreased amounts of available iron, which triggers the iron starvation response initiated by IRP2 stabilization. Representative data shown in FIG. 3D show a dose dependent effect of the compounds on GPX4, which may indicate decreased resistance to ferroptosis. […] The data also show increased expression of ISCA2 with pVHL re-expression.

The subject of another experiment is 786-0 cells. The experiment is described as follows: Resazurin cell viability assay, with or without DFO and other inhibitors. The following applies: for pIC50: Homo sapiens, 24 h, resazurin. On the procedure: (§2) Screens for inhibitory activity of compounds described herein were performed using 786-0 ccRCC cells that stably express HRE-Luc: 5 copies of the hypoxia-responsive element (HRE) fused to the pGL3 luciferase reporter (Promega Corp, Madison WI). 786-0 cells are pVHL deficient and thus constitutively express HIF-2α independently of cellular oxygen tension. Since 786-0 cells lack HIF-1α, HRE-driven luciferase activity is primarily HIF-2α driven, and has been previously validated. Cells were maintained at log phase growth in […] (DMEM) with 10% FBS in a humidified incubator at 37° C. with 5% CO2. For screening assays, cells were seeded at a density of 4,000 cells in 50 μl of complete media/well in quadruplicate wells/point in a 96-well plate. After 24 h, 50 μl of a 2× concentration of test compound was added to each well. Compounds were diluted from a 5-10 mM stock in DMSO and final concentrations of DMSO in each well in controls and treated wells were kept constant at ≤0.6% DMSO. After 24 h treatment, luciferase activity was measured using the Steady-Glo Luciferase assay system (Promega Corp) according to the manufacturer's protocol. Cell viability was measured in quadruplicate parallel wells using resazurin as recommended by the manufacturer (R&D systems, Minneapolis, MN). Data for luciferase and resazurin were normalized to DMSO treated controls (defining 100%) and wells containing assay reagent but no cells (defining 0%) and graphed using the log inhibitor versus normalized response option in Graphpad Prism 9.3.1 software. Representative data determined using Steady-Glo luciferase and resazurin are shown in FIGS. 1A and 1B respectively, with error bars showing SD. Filled diamonds, empty squares and empty triangles indicate treatment with 3, 8 and 22 respectively with results for HRE-Luc shown in FIG. 1A.
In view of the increased cellular iron concentrations induced by the compounds described herein, the involvement of iron in mediating cell death was determined. Cell viability assays were performed as described in Example 2 using resazurin as a cell viability readout and performed in the absence or presence of 100 μM of the iron chelator, DFO (D9533, MilliporeSigma, St Louis, MO). […] Viability IC50 values are shown in brackets.
(In general: The colour change of resazurin is a common sign of viable cells or microbes.)

For a further experiment, the system named is 786-0 ccRCC cells. The experiment is described as follows: ICP-MS of cellular iron, zinc and copper. Conditions: 786-0 cells, 24h. Here is the method: These studies were performed to determine the content of iron and other transition metals in cells after exposure the compounds described herein. 786-0 cells were seeded at 1.5 million cells/flask in T75 cm^2 flasks in DMEM+10% FBS, and allowed to adhere overnight. Cells were then treated with indicated concentrations of compounds in DMSO or DMSO alone (vehicle) for a further 24 h, after which cells were detached by trypsinization, counted, washed twice in phosphate-buffered saline (PBS) and pelleted. Experiments were performed using three replicate T75 cm^2 flasks per condition. A 5:1 mixture of nitric acid (OPTIMA Grade, 70%, Fisher Scientific) and ultrapure hydrogen peroxide (ULTREX II, 30%, Fisher Scientific) was added to cell pellets. This mixture was allowed to digest overnight, heated until dry, and resuspended in 2% nitric acid for analysis using an Agilent 7900 ICP-MS (Agilent Technologies, Santa Clara, CA). Calibration standard solutions for determination of Fe were prepared from Agilent multi-element calibration standard-2A. An Agilent Environmental Calibration Standard was used as an independent control. PBS-only control digestions were used to measure background. Metal readings were normalized to cell number. Data obtained from these studies for three replicate readings (with SEM) are shown in FIG. 3, which show an increase in cellular iron (Fe) content after treatment with indicated compounds.

For experiment [1], the system named is HIF-2α transcriptional activity. The experiment can be described thus: Hypoxia-responsive element-driven luciferase (HRE-Luc) screen. Conditions: Homo sapiens, 786-0, 24 h, 786-0 ccRCC cells stably expressing HRE-Luc; 24 h treatment; range of IC50 values. On the procedure:
as §2

The next experiment concerns HIF-1α and HIF-2α. The experiment is described as follows: Western blots for HIF-1α and HIF-2α in ccRCC cells. The following applies: 786-0 or RCC10 ccRCC cells, 24h, relative to GAPDH. On the procedure:
as §1

The term pIC50 denotes the IC50 on a negative log10 scale, so that one unit is a factor of ten. Regarding `COc1nccc2[nH]c(Nc3nnc(-c4ccc(F)cc4)o3)nc12` [Compound 3, 5-(4-Fluorophenyl)-N-(4-methoxy-1H-imidazo[4,5-c]pyridin-2-yl)-1,3,4-oxadiazol-2-amine], the “effect on IRP2 protein (Western blot)” value in the experiment on IRP2 and GPX4 is “increases IRP2”. In the experiment with 786-0 cells (DFO 100 μM, FIG. 4B), the “effect of DFO co-treatment on compound-mediated loss of cell viability” value was “protective effects of DFO”. Moreover, the “cellular iron (Fe), zinc (Zn) and copper (Cu) content” value in the experiment on 786-0 ccRCC cells was “increases the content of iron, zinc and copper in cells”. For the same molecule, the pIC50 in experiment [1] was more than 5.00. The “effect on HIF-1α and HIF-2α protein (Western blot)” value with HIF-1α and HIF-2α was “decreases HIF-1α and HIF-2α”.
For the molecule `COc1ccc(-c2nnc(Nc3nc4c(OC)nccc4[nH]3)o2)cc1` [Compound 22, N-(4-methoxy-1H-imidazo[4,5-c]73yridine-2-yl)-5-(4-methoxyphenyl)-1,3,4-oxadiazol-2-amine], the negative logarithm of the IC50 (pIC50) is 4.94 in the experiment with 786-0 cells (compound alone, read-out: cell viability IC50); 4.08 in the experiment on 786-0 cells (with DFO 100 μM, read-out: cell viability IC50 in the presence of DFO); more than 5.00 in experiment [1]. Further, the “cellular iron (Fe), zinc (Zn) and copper (Cu) content” value in the experiment with 786-0 ccRCC cells was “increases the content of iron, zinc and copper in cells”.

Source of the values: patent US20250346588A1, “IMIDAZOPYRIDINE AND OXAZOLOPYRIDINE DERIVATIVES AND ANALOGS THEREOF, METHODS OF PREPARATION THEREOF, METHODS OF HIF-1/2A PATHWAY INHIBITION, AND INDUCTION OF FERROPTOSIS” (KUDA THERAPEUTICS, INC., priority 2022, published 2025).
